Measurements from ChEMBL document CHEMBL5352466, “New bioisosteric sulphur-containing choline kinase inhibitors with a tracked mode of action” (Eur J Med Chem, 2023).
pIC50: −log10 of the molar value. Activity calls are given as the source filed them. The rule behind the calls is not given here.

Columns and labels:
HeLa [1] = experiment: Antiproliferative activity against human HeLa cells assessed as inhibition of cell growth incubated for 72 hrs; format: functional
A549 [2] = experiment: Antiproliferative activity against human A549 cells assessed as inhibition of cell growth incubated for 72 hrs; format: functional
HT-29 = experiment: Antiproliferative activity against human HT-29 cells assessed as inhibition of cell growth incubated for 72 hrs; format: functional
Choline kinase alpha = Choline kinase alpha (Homo sapiens, UniProt P35790); experiment: Inhibition of human Choline kinase alpha 1 incubated for 10 mins by liquid-scintillation counter analysis; conditions: for pIC50: read-out: IC50
Chain of Choline kinase alpha (P35790 whole entry): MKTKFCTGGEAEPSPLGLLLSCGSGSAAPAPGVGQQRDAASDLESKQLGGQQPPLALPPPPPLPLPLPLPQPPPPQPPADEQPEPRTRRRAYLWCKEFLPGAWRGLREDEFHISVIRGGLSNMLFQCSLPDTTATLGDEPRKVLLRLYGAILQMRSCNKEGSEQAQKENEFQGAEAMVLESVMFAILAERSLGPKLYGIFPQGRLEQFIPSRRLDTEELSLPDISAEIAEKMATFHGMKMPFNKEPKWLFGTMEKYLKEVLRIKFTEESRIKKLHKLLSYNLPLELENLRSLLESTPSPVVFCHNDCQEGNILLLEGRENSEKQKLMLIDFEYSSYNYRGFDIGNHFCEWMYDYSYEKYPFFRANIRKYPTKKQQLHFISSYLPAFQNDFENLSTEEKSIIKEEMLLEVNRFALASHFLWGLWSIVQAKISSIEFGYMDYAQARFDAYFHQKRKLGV

MCF7 = experiment: Antiproliferative activity against human MCF7 cells assessed as inhibition of cell growth incubated for 72 hrs; format: functional
MDA-MB-231 = experiment: Antiproliferative activity against human MDA-MB-231 cells assessed as inhibition of cell growth incubated for 72 hrs; format: functional
HeLa [3] = experiment: Induction of apoptosis in human HeLa cells assessed as reduction in MCL-1 expression at 5 uM measured for 48 hrs by Western blotting analysis; format: functional, cell-based
A549 [4] = experiment: Induction of mitochondrial membrane potential depolarization in human A549 cells at 5 uM incubated for 24 hrs by JC-1 staining based flow cytometry; format: functional, cell-based
A549 [5] = experiment: Induction of cell cycle arrest in human A549 cells at 1 to 5 uM incubated for 24 hrs by PI staining based flow cytometry analysis; format: functional; conditions: dose 1-5 µM
HeLa [6] = experiment: Induction of apoptosis in human HeLa cells at 1 to 5 uM by Annexin V/propidium iodide staining based flow cytometry analysis; format: functional, cell-based; conditions: dose 1-5 µM, time 48-72 hrs, TDE = time-dependent effect
HeLa [7] = experiment: Induction of apoptosis in human HeLa cells measured for 48 to 72 hrs by Annexin V/propidium iodide staining based flow cytometry analysis; format: functional, cell-based; conditions: dose 1-5 µM, time 48-72 hrs
HeLa [8] = experiment: Induction of apoptosis in human HeLa cells at 5 uM measured for 72 hrs in presence of Z-VAD-fmk by Annexin V/propidium iodide staining based flow cytometry analysis; format: functional, cell-based
HeLa [9] = experiment: Induction of mitochondrial membrane potential depolarization in human HeLa cells at 1 to 5 uM incubated for 24 hrs by JC-1 staining based flow cytometry; format: functional, cell-based; conditions: dose 1-5 µM
[10] = Antiproliferative activity against human Astrocyte cells assessed as inhibition of cell growth incubated for 72 hrs by resazurin dye based assay; format: toxicity
HeLa [11] = experiment: Induction of cell cycle arrest in human HeLa cells at 1 to 5 uM incubated for 24 hrs by PI staining based flow cytometry analysis; format: functional; conditions: dose 1-5 µM
Astrocyte = experiment: Induction of apoptosis in human Astrocyte cells assessed as reduction in MCL-1 expression at 5 uM measured for 48 hrs by Western blotting analysis; format: functional, cell-based
A549 [12] = experiment: Induction of apoptosis in human A549 cells at 5 uM measured for 72 hrs in presence of Z-VAD-fmk by Annexin V/propidium iodide staining based flow cytometry analysis; format: functional, cell-based
HeLa [13] = experiment: Induction of apoptosis in human HeLa cells at 1 to 5 uM measured for 72 hrs by Annexin V/propidium iodide staining based flow cytometry analysis; format: functional, cell-based; conditions: dose 1-5 µM
[14] = Antiproliferative activity against human MCF-10A cells assessed as inhibition of cell growth incubated for 72 hrs by resazurin dye based assay; format: toxicity
HeLa [15] = experiment: Induction of apoptosis in human HeLa cells assessed as increase in cleaved PARP-1 expression at 5 uM measured for 48 hrs by Western blotting analysis; format: functional, cell-based
HeLa [16] = experiment: Induction of cell cycle arrest in human HeLa cells assessed as accumulation of cells at G1 phase at 1 to 5 uM incubated for 24 hrs by PI staining based flow cytometry analysis; format: functional; conditions: dose 1-5 µM

Row | SMILES | GI50 (HeLa [1]) | GI50 (A549 [2]) | GI50 (HT-29) | pIC50 (Choline kinase alpha) | GI50 (MCF7) | GI50 (MDA-MB-231) | other results
1 | CN(c1ccc(Cl)cc1)c1cc[n+](Cc2ccc(SCCSc3ccc(C[n+]4ccc(N(C)c5ccc(Cl)cc5)c5ccccc54)cc3)cc2)c2ccccc12 | > 10000 nM | 2900 nM | 8900 nM | 5.99 | 3690 nM | 5870 nM | 
2 | CN(c1ccccc1)c1cc[n+](Cc2ccc(SCCSc3ccc(C[n+]4ccc(N(C)c5ccccc5)c5ccccc54)cc3)cc2)c2ccccc12 | 9060 nM | 2020 nM | 5980 nM | 5.76 | 4730 nM | 1970 nM | 
3 | CN(c1ccc(Cl)cc1)c1cc[n+](Cc2ccc(SCCSc3ccc(C[n+]4ccc(N(C)c5ccc(Cl)cc5)c5ccsc54)cc3)cc2)c2sccc12 | > 10000 nM | 2660 nM | 6070 nM | 6.15 | 2370 nM | 2950 nM | 
4 | c1cc2c(s1)c(N1CCCCCC1)cc[n+]2Cc1ccc(SCCSc2ccc(C[n+]3ccc(N4CCCCCC4)c4sccc43)cc2)cc1 | 4630 nM | 1290 nM | 2410 nM | 6.19 | 2120 nM | 1920 nM | Activity (HeLa [3]): Active; Activity (A549 [4]): Active; Activity (A549 [5]): inactive; Activity (HeLa [6]): Tde; Activity (HeLa [7]): Dose-Dependent Effect; Activity (HeLa [8]): Active; Activity (HeLa [9]): Active; GI50 at 72 h [10]: 4400 nM; Activity (HeLa [11]): inactive; Activity (Astrocyte): inactive; Activity (A549 [12]): inactive; Activity (HeLa [13]): Active; GI50 at 72 h [14]: 2500 nM; Activity (HeLa [15]): Active; Activity (HeLa [16]): Active
5 | [Br-].[Br-].c1cc(SCCSc2ccc(C[n+]3ccc(N4CCCC4)cc3)cc2)ccc1C[n+]1ccc(N2CCCC2)cc1 | 8840 nM | 1590 nM | 9060 nM |  |  | 1750 nM | IC50 (Choline kinase alpha): Not Determined(Insoluble)
6 | c1cc2c(N3CCCCC3)cc[n+](Cc3ccc(SCCSc4ccc(C[n+]5ccc(N6CCCCC6)c6ccsc65)cc4)cc3)c2s1 | 2990 nM | 920 nM | 2160 nM | 5.36 | 1210 nM | 1230 nM | 
7 | CN(c1ccccc1)c1cc[n+](Cc2ccc(SCCSc3ccc(C[n+]4ccc(N(C)c5ccccc5)c5ccsc54)cc3)cc2)c2sccc12 | 5250 nM | 4050 nM | 6800 nM | 5.85 | 3940 nM | 6680 nM | 
8 | c1cc(SSc2ccc(C[n+]3ccc(N4CCCC4)cc3)cc2)ccc1C[n+]1ccc(N2CCCC2)cc1 | > 10000 nM | > 10000 nM | > 10000 nM | 6.44 |  |  | 
9 | Clc1ccc2c(N3CCCC3)cc[n+](Cc3ccc(SCCSc4ccc(C[n+]5ccc(N6CCCC6)c6ccc(Cl)cc65)cc4)cc3)c2c1 | 260 nM | 530 nM | 3000 nM |  | 1340 nM |  | Activity (HeLa [3]): Active; Activity (A549 [4]): Active; Activity (A549 [5]): inactive; Activity (HeLa [6]): Tde; Activity (HeLa [7]): Dose-Dependent Effect; Activity (HeLa [9]): Active; GI50 at 72 h [10]: 5000 nM; Activity (HeLa [11]): inactive; Activity (Astrocyte): inactive; Activity (HeLa [13]): Active; GI50 at 72 h [14]: 2600 nM; Activity (HeLa [15]): Active; Activity (HeLa [16]): Active
10 | c1cc2c(s1)c(N1CCCC1)cc[n+]2Cc1ccc(SCCSc2ccc(C[n+]3ccc(N4CCCC4)c4sccc43)cc2)cc1 | 9930 nM | 1370 nM | 7480 nM | 6.00 | 3110 nM | 2010 nM | 
11 | CN(c1ccc(Cl)cc1)c1cc[n+](Cc2ccc(SSc3ccc(C[n+]4ccc(N(C)c5ccc(Cl)cc5)c5ccccc54)cc3)cc2)c2ccccc12 | > 10000 nM | > 10000 nM | > 10000 nM | 6.07 |  |  | 

Second part, led by results:

Row | GI50 (HeLa [1]) | GI50 (A549 [2]) | GI50 (HT-29) | pIC50 (Choline kinase alpha) | GI50 (MCF7) | GI50 (MDA-MB-231) | SMILES | other results
12 | > 10000 nM | > 10000 nM | > 10000 nM | 6.24 |  |  | c1cc2c(s1)c(N1CCCC1)nc[n+]2Cc1ccc(SSc2ccc(C[n+]3cnc(N4CCCC4)c4sccc43)cc2)cc1 | 
13 | > 10000 nM | > 10000 nM | > 10000 nM | 5.84 |  |  | Clc1ccc2c(N3CCCC3)cc[n+](Cc3ccc(SSc4ccc(C[n+]5ccc(N6CCCC6)c6ccc(Cl)cc65)cc4)cc3)c2c1 | 
14 | > 10000 nM | > 10000 nM | > 10000 nM | 6.28 |  |  | c1cc2c(N3CCCCC3)nc[n+](Cc3ccc(SSc4ccc(C[n+]5cnc(N6CCCCC6)c6ccsc65)cc4)cc3)c2s1 | 
15 | 1230 nM | 4260 nM | > 10000 nM | 6.49 |  |  | c1cc2c(N3CCCCCC3)nc[n+](Cc3ccc(SSc4ccc(C[n+]5cnc(N6CCCCCC6)c6ccsc65)cc4)cc3)c2s1 | 
16 | 440 nM | 2450 nM | > 10000 nM | 6.19 |  |  | CN(C)c1cc[n+](Cc2ccc(SSc3ccc(C[n+]4ccc(N(C)C)cc4)cc3)cc2)cc1 | 
17 | > 10000 nM | > 10000 nM | > 10000 nM |  |  |  | [Br-].[Br-].c1cc2c(s1)c(N1CCCCCC1)cc[n+]2Cc1ccc(SSc2ccc(C[n+]3ccc(N4CCCCCC4)c4sccc43)cc2)cc1 | IC50 (Choline kinase alpha): Not Determined(Insoluble)
18 | > 10000 nM | 8200 nM | > 10000 nM | 5.59 | 9120 nM | 8940 nM | CN(c1ccccc1)c1nc[n+](Cc2ccc(SCCSc3ccc(C[n+]4cnc(N(C)c5ccccc5)c5sccc54)cc3)cc2)c2ccsc12 | 
19 | 2200 nM | 6160 nM | > 10000 nM | 6.46 |  |  | c1cc2c(s1)c(N1CCCC1)cc[n+]2Cc1ccc(SSc2ccc(C[n+]3ccc(N4CCCC4)c4sccc43)cc2)cc1 | 
20 | 2800 nM | 890 nM | 2090 nM | 6.18 | 1460 nM | 1460 nM | c1cc2c(N3CCCCCC3)cc[n+](Cc3ccc(SCCSc4ccc(C[n+]5ccc(N6CCCCCC6)c6ccsc65)cc4)cc3)c2s1 | Activity (HeLa [3]): Active; Activity (A549 [4]): Active; Activity (A549 [5]): inactive; Activity (HeLa [6]): Tde; Activity (HeLa [7]): Dose-Dependent Effect; Activity (HeLa [8]): Active; Activity (HeLa [9]): Active; GI50 at 72 h [10]: 2500 nM; Activity (HeLa [11]): inactive; Activity (Astrocyte): inactive; Activity (A549 [12]): inactive; Activity (HeLa [13]): Active; Activity (HeLa [15]): Active; Activity (HeLa [16]): Active
21 | > 10000 nM | 1380 nM | > 10000 nM |  |  | 4200 nM | CN(C)c1cc[n+](Cc2ccc(SCCSc3ccc(C[n+]4ccc(N(C)C)cc4)cc3)cc2)cc1.[Br-].[Br-] | IC50 (Choline kinase alpha): Not Determined(Insoluble)
